Assay results taken from PubChem BioAssay AID1117334 (Cheminformatics & Chemogenomics Research Group (CCRG), …, 2015).
Calls of active or inactive are those of the source. How the calls were made is not given here.

These compounds were tested on Colo320 viability, CellTiter-Glo luminescence (assay: cytotoxicity toward Colo320 cells – cell-based, CellTiter-Glo luminescence, IC50, dose response (AID 1117334)).

Structure (SMILES)	IC50
CCCCCCCCCCCCCC[N+](C)(C)C	2520 nM
Cn1cnc([N+](=O)[O-])c1Sc1ncnc2nc[nH]c12	10300 nM (inactive)
CCN(CC)CCCC(C)Nc1c2ccc(Cl)cc2nc2ccc(OC)cc12 (stereo unspecified)	8440 nM (inactive)
O=C1[O][Bi][O]c2ccccc21	> 20000 nM (inactive)
CC(=O)[O][Hg][c]1ccccc1	1300 nM
O=C(O)C1(C(=O)O)CCC1.[NH2-].[NH2-].[Pt+2]	> 20000 nM (inactive)
CC(C)n1c(/C=C/[C@@H](O)C[C@@H](O)CC(=O)O)c(-c2ccc(F)cc2)c2ccccc21	13000 nM (inactive)
OCCN1CCN(CC/C=C2/c3ccccc3Sc3ccc(C(F)(F)F)cc32)CC1	2310 nM
CO[C@@]12[C@H](COC(N)=O)C3=C(C(=O)C(C)=C(N)C3=O)N1C[C@@H]1N[C@@H]12	12600 nM (inactive)
O=Cc1ccc(O)c(O)c1O	9080 nM (inactive)
Cc1ccc([N+](=O)[O-])[c]2c1[O][Hg]2	935 nM
